Laboratory results reported in patent US7342011B2, “Rifamycin analogs and uses thereof” (priority 2003, dated 2008).
Values after ≈ are worked out from the molar mass of the structure shown.

Columns and labels:
Type in all cases: cell-based
S. pneumo. = experiment: MIC assay, S. pneumo.
H. flu = experiment: MIC assay, H. flu
E. faecalis = experiment: MIC assay, E. faecalis
E. coli = experiment: MIC assay, E. coli
S. aureus = experiment: MIC assay, S. aureus

Row | SMILES | MIC (μg/mL) S. pneumo. (S. pneumo.) | MIC (μg/mL) H. flu (H. flu) | MIC (μg/mL) E. faecalis (E. faecalis) | MIC (μg/mL) E. coli (E. coli) | MIC (μg/mL) S. aureus (S. aureus)
1 | CO[C@H]1/C=C/O[C@@]2(C)Oc3c(C)c(O)c4c(=O)c(c5oc6cc(N7CCC(NC(=O)SC)CC7)cc(O)c6nc-5c4c3C2=O)NC(=O)/C(C)=C\C=C\[C@H](C)[C@H](O)[C@@H](C)[C@@H](O)[C@@H](C)[C@H](OC(C)=O)[C@@H]1C [Compound 45, 3′-hydroxy-5′-[4-S-methylthiocarbamyl-1-piperidinyl]benzoxazinorifamycin] | 0.001 µg/mL (≈ 0.00103 µM) | 0.5 µg/mL (≈ 0.514 µM) | 4 µg/mL (≈ 4.11 µM) | 8 µg/mL (≈ 8.22 µM) | 0.015 µg/mL (≈ 0.0154 µM)
2 | CCCNC(=O)NC1CCN(c2cc(O)c3nc4c5c6c7c(C)c(O)c5c(=O)c(c-4oc3c2)NC(=O)C(C)=CC=CC(C)C(O)C(C)C(O)C(C)C(O)C(C)C(OC)C=COC(C)(O7)C6=O)CC1 (stereo not drawn) [Compound 26, 25-O-deacetyl-3′-hydroxy-5′-[4-propyluryl-1-piperidinyl]benzoxazinorifamycin] | 0.00012 µg/mL (≈ 0.000127 µM) | 1 µg/mL (≈ 1.06 µM) | 2 µg/mL (≈ 2.12 µM) | >8 µg/mL | 0.008 µg/mL (≈ 0.00849 µM)
3 | CO[C@H]1/C=C/O[C@@]2(C)Oc3c(C)c(O)c4c(=O)c(c5oc6cc(N7CCC(c8ccccc8)CC7)cc(O)c6nc-5c4c3C2=O)NC(=O)/C(C)=C\C=C\[C@H](C)[C@H](O)[C@@H](C)[C@@H](O)[C@@H](C)[C@H](OC(C)=O)[C@@H]1C [Compound 57, 3′-hydroxy-5′-[4-phenyl-1-piperidinyl]benzoxazinorifamycin] | 0.0005 µg/mL (≈ 0.000521 µM) | 0.5 µg/mL (≈ 0.521 µM) | 2 µg/mL (≈ 2.08 µM) | 8 µg/mL (≈ 8.33 µM) | 0.008 µg/mL (≈ 0.00833 µM)
4 | CO[C@H]1/C=C/O[C@@]2(C)Oc3c(C)c(O)c4c(=O)c(c5sc6cc(N7C[C@@H](C)N[C@@H](C)C7)ccc6nc-5c4c3C2=O)NC(=O)/C(C)=C\C=C\[C@H](C)[C@H](O)[C@@H](C)[C@@H](O)[C@@H](C)[C@H](OC(C)=O)[C@@H]1C [Compound 64, 5′-[(3R,5S)-3,5-dimethyl-1-piperazinyl]benzthiazinorifamycin] | 0.00012 µg/mL (≈ 0.000131 µM) | 0.25 µg/mL (≈ 0.274 µM) | 0.12 µg/mL (≈ 0.131 µM) | 4 µg/mL (≈ 4.38 µM) | 0.004 µg/mL (≈ 0.00438 µM)
5 | CO[C@H]1/C=C/O[C@@]2(C)Oc3c(C)c(O)c4c(=O)c(c5oc6cc(N7C[C@@H]8CCCN(C)[C@@H]8C7)cc(O)c6nc-5c4c3C2=O)NC(=O)/C(C)=C\C=C\[C@H](C)[C@H](O)[C@@H](C)[C@@H](O)[C@@H](C)[C@H](OC(C)=O)[C@@H]1C [Compound 58, 3′-hydroxy-5′-[1-methyl-(4aS,7aS)-octahydro-6H-pyrrolo[3,4-b]pyridin-6-yl]benzoxazinorifamycin] | 0.004 µg/mL (≈ 0.00426 µM) | 0.25 µg/mL (≈ 0.266 µM) | 1 µg/mL (≈ 1.06 µM) | >8 µg/mL | 0.03 µg/mL (≈ 0.0319 µM)
6 | CCOC(=O)NC1CCN(c2cc(O)c3nc4c5c6c7c(C)c(O)c5c(=O)c(c-4oc3c2)NC(=O)/C(C)=C\C=C\[C@H](C)[C@H](O)[C@@H](C)[C@@H](O)[C@@H](C)[C@H](OC(C)=O)[C@H](C)[C@@H](OC)/C=C/O[C@@](C)(O7)C6=O)CC1 [Compound 1] | 0.00025 µg/mL (≈ 0.000257 µM) | 2 µg/mL (≈ 2.06 µM) | 2 µg/mL (≈ 2.06 µM) | >8 µg/mL | 0.008 µg/mL (≈ 0.00824 µM)
7 | CO[C@H]1/C=C/O[C@@]2(C)Oc3c(C)c(O)c4c(=O)c(c5oc6cc(N7CCC(CCO)CC7)cc(O)c6nc-5c4c3C2=O)NC(=O)/C(C)=C\C=C\[C@H](C)[C@H](O)[C@@H](C)[C@@H](O)[C@@H](C)[C@H](OC(C)=O)[C@@H]1C [Compound 61, 3′-hydroxy-5′-[4-(2-hydroxyethyl)-1-piperidinyl]benzoxazinorifamycin] | 0.00012 µg/mL (≈ 0.000129 µM) | 0.25 µg/mL (≈ 0.269 µM) | 1 µg/mL (≈ 1.08 µM) | >8 µg/mL | 0.004 µg/mL (≈ 0.00431 µM)
8 | CO[C@H]1/C=C/O[C@@]2(C)Oc3c(C)c(O)c4c(=O)c(c5oc6cc(N7CCC(C)(N(C)C)CC7)cc(O)c6nc-5c4c3C2=O)NC(=O)/C(C)=C\C=C\[C@H](C)[C@H](O)[C@@H](C)[C@@H](O)[C@@H](C)[C@H](OC(C)=O)[C@@H]1C [Compound 71, 3′-hydroxy-5′-[4-methyl-4-N,N-dimethylamino-1-piperidinyl]benzoxazinorifamycin] | 0.00012 µg/mL (≈ 0.000128 µM) | 0.5 µg/mL (≈ 0.531 µM) | 0.25 µg/mL (≈ 0.266 µM) | 4 µg/mL (≈ 4.25 µM) | 0.008 µg/mL (≈ 0.0085 µM)
9 | COC1C=COC2(C)Oc3c(C)c(O)c4c(=O)c(c5oc6cc(N7CCC(NC(=O)OC(C)C)CC7)cc(O)c6nc-5c4c3C2=O)NC(=O)C(C)=CC=CC(C)C(O)C(C)C(O)C(C)C(O)C1C (stereo not drawn) [Compound 29, 25-O-deacetyl-3′-hydroxy-5′-[4-isopropylcarbamyl-1-piperidinyl]benzoxazinorifamycin] | 0.00012 µg/mL (≈ 0.000127 µM) | 1 µg/mL (≈ 1.06 µM) | 2 µg/mL (≈ 2.12 µM) | >8 µg/mL | 0.008 µg/mL (≈ 0.00848 µM)
10 | COC1C=COC2(C)Oc3c(C)c(O)c4c(=O)c(c5oc6cc(N7CCC(NS(C)(=O)=O)CC7)cc(O)c6nc-5c4c3C2=O)NC(=O)C(C)=CC=CC(C)C(O)C(C)C(O)C(C)C(O)C1C (stereo not drawn) [Compound 27] | 0.001 µg/mL (≈ 0.00107 µM) | 0.12 µg/mL (≈ 0.128 µM) | 1 µg/mL (≈ 1.07 µM) | >8 µg/mL | 0.015 µg/mL (≈ 0.016 µM)
11 | CO[C@H]1/C=C/O[C@@]2(C)Oc3c(C)c(O)c4c(=O)c(c5oc6cc(N7CCC(NC(C)=O)CC7)cc(O)c6nc-5c4c3C2=O)NC(=O)/C(C)=C\C=C\[C@H](C)[C@H](O)[C@@H](C)[C@@H](O)[C@@H](C)[C@H](OC(C)=O)[C@@H]1C [Compound 44] | 0.008 µg/mL (≈ 0.0085 µM) | 0.25 µg/mL (≈ 0.266 µM) | 2 µg/mL (≈ 2.13 µM) | >8 µg/mL | 0.06 µg/mL (≈ 0.0638 µM)
12 | CO[C@H]1/C=C/O[C@@]2(C)Oc3c(C)c(O)c4c(=O)c(c5sc6cc(N7C[C@@H](C)N(CC8CC8)C[C@@H]7C)ccc6nc-5c4c3C2=O)NC(=O)/C(C)=C\C=C\[C@H](C)[C@H](O)[C@@H](C)[C@@H](O)[C@@H](C)[C@H](OC(C)=O)[C@@H]1C [Compound 68, 5′-[(2S,5R)-4-(cyclopropylmethyl)-2,5-dimethylpiperazinyl]benzthiazinorifamycin] | 0.0005 µg/mL (≈ 0.000517 µM) | 0.5 µg/mL (≈ 0.517 µM) | 2 µg/mL (≈ 2.07 µM) | >8 µg/mL | 0.06 µg/mL (≈ 0.062 µM)
13 | CO[C@H]1/C=C/O[C@@]2(C)Oc3c(C)c(O)c4c(=O)c(c5oc6cc(N7CCC(CCO)CC7)cc(O)c6nc-5c4c3C2=O)NC(=O)/C(C)=C\C=C\[C@H](C)[C@H](O)[C@@H](C)[C@@H](O)[C@@H](C)[C@H](O)[C@@H]1C [Compound 66, 25-O-deacetyl-3′-hydroxy-5′-[4-(2-hydroxyethyl)-1-piperidinyl]benzoxazinorifamycin] | 0.0005 µg/mL (≈ 0.000564 µM) | 0.12 µg/mL (≈ 0.135 µM) | 0.12 µg/mL (≈ 0.135 µM) | 4 µg/mL (≈ 4.51 µM) | 0.004 µg/mL (≈ 0.00451 µM)
14 | CCCS(=O)(=O)NC1CCN(c2cc(O)c3nc4c5c6c7c(C)c(O)c5c(=O)c(c-4oc3c2)NC(=O)/C(C)=C\C=C\[C@H](C)[C@H](O)[C@@H](C)[C@@H](O)[C@@H](C)[C@H](OC(C)=O)[C@H](C)[C@@H](OC)/C=C/O[C@@](C)(O7)C6=O)CC1 [Compound 35] | 0.00025 µg/mL (≈ 0.000249 µM) | 0.5 µg/mL (≈ 0.497 µM) | 4 µg/mL (≈ 3.98 µM) | 8 µg/mL (≈ 7.96 µM) | 0.015 µg/mL (≈ 0.0149 µM)
15 | CCOC(=O)NC1CCN(c2cc(O)c3nc4c5c6c7c(C)c(O)c5c(=O)c(c-4oc3c2)NC(=O)C(C)=CC=CC(C)C(O)C(C)C(O)C(C)C(O)C(C)C(OC)C=COC(C)(O7)C6=O)CC1 (stereo not drawn) [Compound 3, 25-O-deacetyl-3′-hydroxy-5′-(4-ethylcarbamyl-1-piperidinyl)benzoxazinorifamycin] | 0.0005 µg/mL (≈ 0.000538 µM) | 0.25 µg/mL (≈ 0.269 µM) | 0.12 µg/mL (≈ 0.129 µM) | 4 µg/mL (≈ 4.31 µM) | 0.03 µg/mL (≈ 0.0323 µM)
16 | CO[C@H]1/C=C/O[C@@]2(C)Oc3c(C)c(O)c4c(=O)c(c5oc6cc(N7CCC(CNC(C)=O)CC7)cc(O)c6nc-5c4c3C2=O)NC(=O)/C(C)=C\C=C\[C@H](C)[C@H](O)[C@@H](C)[C@@H](O)[C@@H](C)[C@H](OC(C)=O)[C@@H]1C [Compound 55, 3′-hydroxy-5′-[4-acetylaminomethyl-1-piperidinyl]benzoxazinorifamycin] | 0.00025 µg/mL (≈ 0.000262 µM) | 0.5 µg/mL (≈ 0.524 µM) | 1 µg/mL (≈ 1.05 µM) | 8 µg/mL (≈ 8.38 µM) | 0.008 µg/mL (≈ 0.00838 µM)
17 | CCOC(=O)N1CCC[C@@H]2CN(c3cc(O)c4nc5c6c7c8c(C)c(O)c6c(=O)c(c-5oc4c3)NC(=O)/C(C)=C\C=C\[C@H](C)[C@H](O)[C@@H](C)[C@@H](O)[C@@H](C)[C@H](OC(C)=O)[C@H](C)[C@@H](OC)/C=C/O[C@@](C)(O8)C7=O)C[C@@H]21 [Compound 40, 3′-hydroxy-5′-[1-ethylcarbamyl-(4aR,7aR)-octahydro-6H-pyrrolo[3,4-b]pyridin-6-yl]benzoxazinorifamycin] | 0.008 µg/mL (≈ 0.00802 µM) | 0.5 µg/mL (≈ 0.501 µM) | 1 µg/mL (≈ 1 µM) | >8 µg/mL | 0.06 µg/mL (≈ 0.0602 µM)
18 | CO[C@H]1/C=C/O[C@@]2(C)Oc3c(C)c(O)c4c(=O)c(c5oc6cc(N7CCC(N)CC7)cc(O)c6nc-5c4c3C2=O)NC(=O)/C(C)=C\C=C\[C@H](C)[C@H](O)[C@@H](C)[C@@H](O)[C@@H](C)[C@H](O)[C@@H]1C [Compound 39, 25-O-deacetyl-3′-hydroxy-5′-[4-amino-1-piperidinyl]benzoxazinorifamycin] | 0.001 µg/mL (≈ 0.00117 µM) | 0.25 µg/mL (≈ 0.292 µM) | 2 µg/mL (≈ 2.33 µM) | >8 µg/mL | 0.03 µg/mL (≈ 0.035 µM)
